Test results: ChEMBL document CHEMBL2074498, “Induction of the multispecific organic anion transporter (cMoat/mrp2) gene and biliary glutathione secretion by the herbicide 2,4,5-trichlorophenoxyacetic acid in the mouse liver” (Biochem J, 1999)

Tests used:
[1] = biological target: T1, ATP-binding cassette sub-family C member 2 (Mus musculus, UniProt Q8VI47); assay: TP_TRANSPORTER: Western in vivo, liver of CF I mouse; type: functional, organism-based
[2] = biological target: T1, ATP-binding cassette sub-family C member 2; assay: TP_TRANSPORTER: Northern blot in vivo, liver of CF I mouse; type: functional, organism-based

T1 sequence (Q8VI47 whole entry): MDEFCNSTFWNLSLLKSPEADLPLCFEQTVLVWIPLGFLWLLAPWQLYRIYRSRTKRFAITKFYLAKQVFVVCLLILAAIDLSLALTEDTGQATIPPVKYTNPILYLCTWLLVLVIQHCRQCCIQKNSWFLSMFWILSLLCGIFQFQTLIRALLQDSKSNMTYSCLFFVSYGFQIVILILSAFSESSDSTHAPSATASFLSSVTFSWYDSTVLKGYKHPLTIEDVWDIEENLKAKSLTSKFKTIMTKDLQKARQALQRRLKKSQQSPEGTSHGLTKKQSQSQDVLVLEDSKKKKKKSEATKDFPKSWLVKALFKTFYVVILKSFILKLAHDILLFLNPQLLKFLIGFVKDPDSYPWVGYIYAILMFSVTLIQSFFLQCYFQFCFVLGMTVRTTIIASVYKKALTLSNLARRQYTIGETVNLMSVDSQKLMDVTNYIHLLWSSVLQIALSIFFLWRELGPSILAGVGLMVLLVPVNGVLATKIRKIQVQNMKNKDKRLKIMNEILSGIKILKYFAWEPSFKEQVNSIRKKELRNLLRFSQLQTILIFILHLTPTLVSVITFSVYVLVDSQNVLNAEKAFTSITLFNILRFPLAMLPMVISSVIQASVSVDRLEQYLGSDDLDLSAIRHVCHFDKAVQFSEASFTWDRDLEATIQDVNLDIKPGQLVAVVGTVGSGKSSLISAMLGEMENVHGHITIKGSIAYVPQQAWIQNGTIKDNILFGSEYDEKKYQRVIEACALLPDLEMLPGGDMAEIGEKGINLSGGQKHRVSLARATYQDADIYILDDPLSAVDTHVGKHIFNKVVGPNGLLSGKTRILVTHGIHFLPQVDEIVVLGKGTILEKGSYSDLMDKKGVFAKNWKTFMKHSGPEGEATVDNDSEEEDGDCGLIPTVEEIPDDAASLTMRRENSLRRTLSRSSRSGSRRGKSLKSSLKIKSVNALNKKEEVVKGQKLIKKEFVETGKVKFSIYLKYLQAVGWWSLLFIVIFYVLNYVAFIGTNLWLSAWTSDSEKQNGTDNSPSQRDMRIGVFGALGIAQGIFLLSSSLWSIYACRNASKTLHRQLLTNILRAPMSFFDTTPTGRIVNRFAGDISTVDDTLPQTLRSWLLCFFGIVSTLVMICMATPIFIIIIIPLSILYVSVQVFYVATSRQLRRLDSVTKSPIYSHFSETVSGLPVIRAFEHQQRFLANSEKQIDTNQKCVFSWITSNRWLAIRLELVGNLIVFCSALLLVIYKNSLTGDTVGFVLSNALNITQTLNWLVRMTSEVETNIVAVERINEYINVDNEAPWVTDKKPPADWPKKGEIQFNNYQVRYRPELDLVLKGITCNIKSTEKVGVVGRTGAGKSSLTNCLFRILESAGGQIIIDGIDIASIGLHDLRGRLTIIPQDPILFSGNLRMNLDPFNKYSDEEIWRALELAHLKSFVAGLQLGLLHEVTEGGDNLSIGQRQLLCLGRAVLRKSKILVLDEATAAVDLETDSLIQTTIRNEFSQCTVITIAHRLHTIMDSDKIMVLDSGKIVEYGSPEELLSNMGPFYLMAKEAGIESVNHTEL

In the case of `O=C(O)COc1cc(Cl)c(Cl)cc1Cl` [2,4,5-TRICHLOROPHENOXYACETIC ACID], the Activity [1] is reported as “inducer [+]” and the Activity [2] is reported as “inducer [+]”.
